Experimental data taken from US20080248470A1, “GENETIC SCREENING FOR PREDICTING ANTIDEPRESSANT DRUG RESPONSE BASED ON THE MONOAMINE TRANSPORTER GENE POLYMORPHISM COMBINATION” (SUNGKYUNKWAN UNIVERSITY Foundation for Corporate …, priority 2007, published 2008).
Where “and” joins values, the source holds several entries; their conditions need not be identical. Identical values can stand only once. Like-named read-outs stand apart in the source and are kept apart here.

What was measured:
[1] = plasma drug levels by HPLC-MS/MS, trough samples at end of week 4
[2] = tested on: patients with major depressive episode; details: for change in depression score (HAM-D), FIG. 2: after 6 weeks
Method: In the present invention, experiments were conducted on patients other than the patient group of a prior report (reference 6). The patient subjects who participated in the experiments of the present invention were all […] and were enrolled in the Clinical Trials Program of the Samsung Medical Center Geropsychiatry and Affective Disorder Clinics (Seoul Korea). The affective disorder section of the Samsung Psychiatric Evaluation Schedule (SPES) uses the Korean version of the Structured Clinical Interview for DSM-IV Axis-I disorders (SCID-IV; 4th edition, reference 17).
In the present invention, at least one family member who is living with the patient was interviewed to supplement the patient's report of symptoms, behaviors, level of functioning, duration of episode, and recent treatments. The patient subjects who participated in the experiments of the present invention all fulfilled DSM-IV criteria for major depressive episode, the Korean version of the Structured Clinical Interview for DSM-IV Axis-I disorders (4th edition). Diagnoses were confirmed by a board certified psychiatrist on the basis of the SPES, case review notes, and other relevant data. A minimum baseline 17-item Hamilton depression scale (HAM-D) score of 15 was required.
Patient subjects, who received other psychotropic medications within 2 weeks of the study or fluoxetine within 4 weeks, were excluded. In the present invention, potential subjects were excluded for pregnancy, significant medical conditions, abnormal laboratory baseline values, unstable psychiatric features (e.g., suicidality), history of alcohol or drug dependence, seizures, head trauma with loss of consciousness, neurologic illness, or concomitant Axis I psychiatric disorder. The protocol was approved by the ethics review board of Samsung Medical Center, Seoul, Korea. Signed informed consent was obtained from all participants.
Dose titration was completed within 2 weeks.
Remission was defined as a HAM-D of less than 8 at 6 weeks (reference 19).
In the present invention, 208 patients (86% of the original participants) completed the six-week treatment trial. Sixteen patients receiving NRI treatment and 17 patients receiving SSRI treatment dropped out. […] Ten patients were excluded, either because their plasma drug concentrations were undetectable, consistent with noncompliance (N=6) or were in the range consistent with extensive drug metabolism (<200 ng/ml norfluoxetine-fluoxetine and <30 ng/ml sertraline, N=4) (reference 20). […] These 33 dropouts were excluded in data analyses.
Genomic DNA was extracted from whole blood using a Wizard Genomic Purification kit (Promega, Madison, Wis., USA). The present inventors analyzed the genotype of the 5-HTT promoter s/l polymorphism (5-HTTLPR), the genotype of the 5-HTT intron 2 s/l polymorphism, and the NET G1287A polymorphism in exon 9. For this purpose, the G1287A polymorphism in exon 9 was amplified by PCR with primers of SEQ ID NO: 1 and SEQ ID NO: 2 and digested by restriction enzyme Sau96I.

CN[C@H]1CC[C@@H](c2ccc(Cl)c(Cl)c2)c2ccccc21 [sertraline]
Plasma levels (mean ±SD) ([1]; non-responders): 72 ± 28 ng/mL | Plasma levels (mean ±SD) ([1]; responders): 75 ± 29 ng/mL

CNCCC=C1c2ccccc2CCc2ccccc21 [nortriptyline]
Response rate ([2]; 5-HTT promoter (5-HTTLPR) ss genotype, 6 weeks, listed as NRI): 76% and 38/50(76.0) % | Response rate ([2]; NET A carrier + 5-HTT promoter l carrier, any intron 2 genotype): 22% | Response rate ([2]; NET A carrier + 5-HTT promoter ss, any intron 2 genotype): 63% | Response rate ([2]; NET G1287A AA genotype, 6 weeks): 4/6(66.7) % | Response rate ([2]; NET G1287A GA genotype, 6 weeks): 16/41(39.0) % | Response rate ([2]; NET G1287A GA+AA genotypes (A allele carriers), 6 weeks): 43% | Response rate ([2]; NET G1287A GA+AA genotypes (A allele carriers), 6 weeks, listed as NRI): 42.6% | change in depression score (HAM-D), FIG. 2 ([2]; NET G1287A GA+AA genotypes): 0.11 | change in depression score (HAM-D), FIG. 2 ([2]; NET G1287A GG genotype): 0.14 | Rate of remission (HAM-D of less than 8 at 6 weeks) ([2]; all patients who completed the 6-week trial): 29% | Response rate (50% or greater decrease in HAM-D score at 6 weeks) ([2]; all patients who completed the 6-week trial, listed as NRI): 62% and 55/89 (61.8) % | expected treatment success rate when prescribed on NET G1287A examination ([2]; patient having the GG genotype): 83.35% | Plasma levels (mean ±SD) ([1]; non-responders): 123 ± 23 ng/mL | Plasma levels (mean ±SD) ([1]; responders): 116 ± 21 ng/mL
